PMC11313944, “Ethyl Acetate Fraction from Eleutherococcus divaricatus Root Extract as a Promising Source of Compounds with Anti-Hyaluronidase, Anti-Tyrosinase, and Antioxidant Activity but Not Anti-Melanoma Activity” (Molecules, 2024)
Marks after values point to notes of the source that are not given here.

Key:
[1] = molecular target: mushroom tyrosinase (mTYR); test: Tyrosinase inhibition assay (L-tyrosine substrate); type: biochemical; settings: phenolic acid and eleutheroside standards (Table 6)
Method: Tyrosinase inhibitor assays were conducted in 96-well plates using a modified method originally described by Wróbel-Biedrawa. The process involves the conversion of […] to L-DOPA, then to DOPA-quinone, facilitated by the tyrosinase enzyme. This reaction results in the solution turning brown. In brief, 10 μL of the sample (concentrations of 10.0, 1.0, and 0.1 mg/mL in 10% DMSO) was combined with 150 μL of a phosphoric buffer containing mushroom tyrosinase (pH = 6.88, 100 U/mL). This mixture was then incubated for 10 min at room temperature. […] Following incubation, L-tyrosine (0.3 mg/mL) was added to each well, and the absorbance was measured at 492 nm (using a kinetic model every 5 min). Two time points (t1 and t2) were selected within the linear range of the graph. All samples were tested in triplicate. […] INHTYR=AC−AS/AC∗100%
AS—the difference in absorbance between times t2 and t1 for the sample;
AC—the difference in absorbance between times t2 and t1 for the positive control.

[2] = molecular target: hyaluronidase from bovine testes (bHYAL) (Bos taurus, UniProt Q2YDK3); test: Bovine hyaluronidase inhibition assay (CTAB turbidimetric); type: biochemical
hyaluronidase from bovine testes (bHYAL), sequence (Q2YDK3 entry or part of it): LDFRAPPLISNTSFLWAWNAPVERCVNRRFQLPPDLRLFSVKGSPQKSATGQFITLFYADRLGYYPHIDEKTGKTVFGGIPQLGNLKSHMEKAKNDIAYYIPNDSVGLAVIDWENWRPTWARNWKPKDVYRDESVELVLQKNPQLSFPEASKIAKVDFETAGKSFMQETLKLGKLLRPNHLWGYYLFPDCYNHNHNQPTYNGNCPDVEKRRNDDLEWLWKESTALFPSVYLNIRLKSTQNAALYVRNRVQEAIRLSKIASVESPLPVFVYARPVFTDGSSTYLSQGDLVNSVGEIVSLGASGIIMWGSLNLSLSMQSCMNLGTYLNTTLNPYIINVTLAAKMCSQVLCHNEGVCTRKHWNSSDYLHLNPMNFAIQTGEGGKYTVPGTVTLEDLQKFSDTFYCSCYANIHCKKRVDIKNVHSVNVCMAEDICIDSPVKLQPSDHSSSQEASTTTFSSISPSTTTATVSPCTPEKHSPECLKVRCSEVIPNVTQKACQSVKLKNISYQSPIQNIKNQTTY
Method: Bovine hyaluronidase inhibitor assays were conducted in 96-well plates, following a modified method originally described by Di Ferrante and Studzińska-Sroka. The activity of the compounds or extracts was determined based on the precipitation of non-hydrolyzed hyaluronic acid using cetyltrimethylammonium bromide (CTAB). A 10% water solution of DMSO was used to dissolve the extract. Then, 15 μL of extracts at concentrations of 10.0, 1.0, and 0.1 mg/mL in the well were mixed with an acetate buffer (15 μL, pH = 5.35), an incubation buffer (25 μL, pH = 5.35, 0.01% BSA, 0.45% NaCl), and an enzyme solution (25 μL, 30 U/mL in the incubation buffer). This mixture was incubated at 37 °C for 10 min. Following this, a hyaluronic acid solution (25 μL, 0.3 mg/mL in an acetate buffer with a pH of 5.35) was added. The plates were then incubated for an additional 45 min at 37 °C. After incubation, non-hydrolyzed hyaluronic acid was precipitated by adding 2.5% CTAB (200 μL). The plates were then maintained at 25 °C for 10 min. The intensity of the complex formation was measured at a wavelength of 600 nm. The presence of inhibition was determined by measuring the absorbance of the solution without the inhibitor (AC) and the enzyme (AT). All samples were tested in triplicate. The inhibition of hyaluronidase was calculated using a specific equation, with aescin used as a standard. INHHYAL=AS−AC/AT−AC∗100%
(§1) AS—absorbance of the HA + sample + enzyme;
(§2) AC—absorbance of the HA + enzyme;
(§3) AT—absorbance of the HA + sample.

[3] = Iron (II) ion chelation assay (ferrozine); settings: results for 1 mg/mL
Method: The ion chelation assay was conducted using the method proposed by Li et al. [54]. Initially, 100 μL of extract at a concentration of 1.0 mg/mL was combined with methanol (150 μL, MeOH) and iron(II) chloride (5 μL, FeCl2) at a concentration of 2 mM. Subsequently, 5 μL of ferrozine was added at a concentration of 5 mM. Following a period of incubation, the absorbance was measured at a wavelength of 510 nm. The degree of chelation was then calculated using a specific equation, with ethylenediaminetetraacetic acid (EDTA) serving as a positive control. INHFe^2+=AC−AS/AC∗100%
AS—the absorbance for sample + ferrozine + FeCl2;
AC—the absorbance without sample + ferrozine + FeCl2.

[4] = ABTS free radical scavenging activity; settings: 30 min incubation
Method: The ABTS free radical scavenging test was conducted following the method outlined by Wu et al. A working solution of ABTS+ was prepared by combining 10 mL of ABTS (7 mM in H2O) with 10 mL of potassium persulfate (2.45 mM in H2O). This mixture was then left to incubate in the dark for 12 h. The ABTS solution was subsequently diluted with water until it reached an absorbance of 0.700 ± 0.03 at 405 nm. Then, volumes of 10 μL of extracts at concentrations of 1 mg/mL, 0.1 mg/mL, and 0.01 mg/mL (dissolved in MeOH) were combined with 190 μL of the ABTS+ solution and incubated for 30 min. The absorbance at 405 nm was measured after the incubation period. Butylated hydroxyanisole (BHA) was used as a control. The antioxidant activity was then calculated using a specific equation. INHABTS=AC−AS/AC∗100%
AS—the absorbance for sample + ABTS;
AC—the absorbance without sample + ABTS.

[5] = DPPH free radical scavenging activity; settings: 60 min incubation
Method: The DPPH free radical scavenging test was conducted according to the procedure established by Naseer et al.. A working solution of DPPH• was prepared by dissolving 24 mg of DPPH in 100 mL of […]. This solution was further diluted with methanol until it reached an absorbance of 0.900 ± 0.03 at 515 nm. Subsequently, volumes of 10 μL of extracts at concentrations of 1 mg/mL, 0.1 mg/mL, and 0.01 mg/mL (dissolved in MeOH) were combined with 190 μL of the DPPH• solution and allowed to incubate for 60 min. The absorbance at 515 nm was measured post incubation. Butylated hydroxyanisole (BHA) was used as a control. The antioxidant activity was then calculated using a specified equation. INHDPPH=AC−AS/AC∗100%
AS—the absorbance for sample + DPPH;
AC—the absorbance without sample + DPPH.

[6] = tested on: human hyaluronidase (hHYAL); settings: cited from earlier work
[7] = molecular target: T1, human serum hyaluronidase (hHYAL) (Homo sapiens, UniProt Q12794); test: Human serum hyaluronidase inhibition, serum of children with acute lymphoblastic leukemia; type: biochemical; settings: mean over sera of 5 patients
T1 construct: from tissue; host or cells: serum of children diagnosed with acute lymphoblastic leukemia
T1 sequence (Q12794 22-435): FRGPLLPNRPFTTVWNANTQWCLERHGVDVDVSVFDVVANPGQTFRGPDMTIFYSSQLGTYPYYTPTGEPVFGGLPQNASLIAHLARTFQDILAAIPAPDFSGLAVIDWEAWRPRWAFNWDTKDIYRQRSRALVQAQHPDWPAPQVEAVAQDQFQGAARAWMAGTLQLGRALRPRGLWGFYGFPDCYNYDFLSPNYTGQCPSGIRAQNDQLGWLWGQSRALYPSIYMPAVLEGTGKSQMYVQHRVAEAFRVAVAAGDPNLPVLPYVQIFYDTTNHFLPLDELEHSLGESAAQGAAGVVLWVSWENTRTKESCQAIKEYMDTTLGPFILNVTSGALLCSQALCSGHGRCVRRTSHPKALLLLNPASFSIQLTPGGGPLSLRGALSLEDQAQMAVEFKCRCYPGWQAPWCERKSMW
Method: Five boys diagnosed with acute lymphoblastic leukemia (ALL) before starting treatment were included in the study. These patients were diagnosed at the Department of Pediatric Hematology and Oncology at Jurasz University Hospital in Bydgoszcz, Poland, between 2019 and 2020. Venous blood samples were collected from each child while fasting and placed into serum tubes supplied by Becton Dickinson, located in Franklin Lakes, NJ, USA. The blood samples were left to clot at room temperature for 30 min, then centrifuged for 20 min at 2000× g, also at room temperature. The samples were then collected and stored at a temperature of −80 °C until the time of analysis. The study was approved by the local Bioethics Committee (approval number 608/2019) and was conducted in accordance with the Declaration of Helsinki.
The inhibition of human serum hyaluronidase was assessed using modified methods. The activity of the compounds or extracts was determined by precipitating non-hydrolyzed hyaluronic acid with cetyltrimethylammonium bromide (CTAB). […] The intensity of the complex formation was measured at a wavelength of 600 nm. […] The inhibition of hyaluronidase was calculated using a specific equation, with aescin used as a standard. […]
as §1, §2, §3

hyaluronidase = settings: cited from earlier work
UACC-647 melanoma cells = test: MTT viability assay, UACC-647; type: cell-based, human
Method: (§4) The following human melanoma cell lines were used in this study: A375 (ATCC:CRL-1619), UACC-647 (CVCL_4049), and SK-MEL-30 (DSMZ:ACC 151). A375 cells were maintained in Dulbecco’s Modified Eagle’s Medium (DMEM). UACC-647 and SK-MEL-30 were cultured in RPMI-1640. All basal media were supplemented with fetal bovine serum (FBS) at a final concentration of 10%. The control used in the study was BJ foreskin fibroblasts (ATCC:CRL-2522). To facilitate the growth of BJ cells, Eagle’s Minimum Essential Medium (EMEM) with 10% FBS was utilized. Tissue culture-treated Petri dishes were used to support all cell lines. A temperature of 37 °C and 5% CO2 were maintained routinely. The cells were expanded for a few passages, then seeded onto 96-well plates, where they were left to attach overnight. The following day, the cells were exposed to E. divaricatus fractionated extracts at descending concentrations, starting from 200 µg/mL, or to a vehicle (DMSO, 0.1%). Alternatively, the cells were treated with doxorubicin (DOX) to independently determine the inhibitory concentrations causing the 10, 50, and 90% levels of maximal inhibition (IC10, IC50, and IC90, respectively) of cellular viability for each melanoma cell line. Then, the melanoma cells were treated with the DOX at IC10, IC50, or IC90, followed by the addition of the fractions of the extracts from E. divaricatus at a dose of 200 µg/mL. Upon 24 h of incubation, the viability of the cells was assessed by MTT assay.
(§5) Dose–response curves were obtained using GraphPad Prism 8.4.3 software running on a personal computer. Experimental datapoints were fitted to the sigmoidal equation, and the IC50 value was calculated. IC10 and IC90 values were computed using a web tool available at https://www.graphpad.com/ accessed on 20 May 2023.

A375 melanoma cells = test: MTT viability assay, A375; type: cell-based, human
Method: as §4, §5

SK-MEL-30 melanoma cells = test: MTT viability assay, SK-MEL-30; type: cell-based, human
Method: as §4, §5

[8] = tested on: MCF-7 human breast adenocarcinoma cell line; parameters: method as in PMID 25918798; settings: read-out: IC50 antiproliferative; cited from earlier work
[9] = phenolic acid and eleutheroside standards (Table 6)
[10] = Homo sapiens, A-375, A375, 24 h

O=C(/C=C/c1ccc(O)c(O)c1)O[C@@H]1C[C@](O)(C(=O)O)C[C@@H](O)[C@H]1O [Chlorogenic acid]
IC50 mTYR [1]: 107.52 ± 3.46 ^ab µg/mL

COc1cc(C2OCC3C(c4cc(OC)c(O[C@@H]5O[C@H](CO)[C@@H](O)[C@H](O)[C@H]5O)c(OC)c4)OCC23)cc(OC)c1O[C@@H]1O[C@H](CO)[C@@H](O)[C@H](O)[C@H]1O (single isomer, unassigned; (-)) [Eleutheroside E, (−)-siringaresinol 4,4″-O-β-D-diglucoside]
IC50 bHYAL [2, 9]: no activity
IC50 mTYR [1]: no activity

O=C(O)CN(CCN(CC(=O)O)CC(=O)O)CC(=O)O [EDTA, ethylenediaminetetraacetic acid]
Ferrozine (iron(II) chelation) [3]: 98.9 ± 0.01%

Eleutheroside E1
IC50 bHYAL [2, 9]: no activity
IC50 mTYR [1]: no activity

COc1ccc(O)c(C(C)(C)C)c1 [BHA, Butylated hydroxyanisole]
IC50 ABTS [4]: 2.35 ± 0.11 ^a µg/mL
IC50 DPPH [5]: 62.52 ± 4.13 ^ab µg/mL

aescin
IC50 bHYAL ([2]; fractions of the 75% methanol extract and control (Table 5)): 388.8 ± 1.81 ^b µg/mL
inhibition of human hyaluronidase activity, range [6]: 20.00–47.37%
inhibition of hyaluronidase activity, mean group value [6]: 40%
hHYAL inhibition, mean group value [7]: 63.8%

O=C(/C=C/c1ccc(O)c(O)c1)O[C@H](Cc1ccc(O)c(O)c1)C(=O)O [rosmarinic acid]
IC50 (hyaluronidase): 545 µM

O=C(O)c1ccc(O)c(O)c1 [Protocatechuic acid]
IC50 mTYR [1]: 134.57 ± 3.46 ^b µg/mL

COc1cccc2c1C(=O)c1c(O)c3c(c(O)c1C2=O)C[C@@](O)(C(=O)CO)C[C@@H]3O[C@H]1C[C@H](N)[C@H](O)[C@H](C)O1 [DOX, doxorubicin]
IC50 (UACC-647 melanoma cells; Homo sapiens, UACC-647, 24 h): 1.16 µM
IC90 (UACC-647 melanoma cells; Homo sapiens, UACC-647, 24 h): 3.76 µM
maximal suppression of viability (UACC-647 melanoma cells; UACC-647): 39.15%
IC10 (UACC-647 melanoma cells; UACC-647, 24 h): 0.36 µM
maximal level of inhibition of viability (A375 melanoma cells; A375): 96.38%
IC10 (A375 melanoma cells; A375, 24 h): 0.09 µM
inhibition of viability (A375 melanoma cells; A375, DOX alone at IC90): 96%
IC50 (A375 melanoma cells; [10]): 0.33 µM
IC90 (A375 melanoma cells; [10]): 1.19 µM
IC50 (SK-MEL-30 melanoma cells; Homo sapiens, SK-MEL-30, 24 h, read-out: IC50 (50% of maximal inhibition of viability)): 1.52 µM
IC90 (SK-MEL-30 melanoma cells; Homo sapiens, SK-MEL-30, 24 h, read-out: IC90 (90% of maximal inhibition of viability)): 9.63 µM
maximal drop of viability (SK-MEL-30 melanoma cells; SK-MEL-30): 81.87%
IC10 (10% of maximal inhibition of viability) (SK-MEL-30 melanoma cells; SK-MEL-30, 24 h): 0.24 µM

Cc1c(C)c2c(c(C)c1O)CCC(C)(C(=O)O)O2 (centres unmarked) [TROLOX, 6-hydroxy-2,5,7,8-tetramethylchroman-2-carboxylic acid]
IC50 ABTS [4]: 2.85 ± 0.18 ^ab µg/mL
IC50 DPPH [5]: 13.68 ± 3.53 ^a µg/mL

O=C(O)/C=C/c1ccc(O)c(O)c1 [Caffeic acid]
IC50 mTYR [1]: 56.22 ± 0.67 ^a µg/mL

O=C1O[C@H]([C@@H](O)CO)C(O)=C1O [AA, ascorbic acid]
IC50 ABTS [4]: 2.27 ± 0.07 ^a µg/mL
IC50 DPPH [5]: 24.93 ± 0.28 ^ab µg/mL

O=C1OCc2c1c(-c1ccc3c(c1)OCO3)c1cc3c(cc1c2O)OCO3 [taiwanin E]
IC50 [8]: 1.47 µM

COc1cc(/C=C/CO)cc(OC)c1O[C@@H]1O[C@H](CO)[C@@H](O)[C@H](O)[C@H]1O [Eleutheroside B, syringin 4-β-D-glucoside]
IC50 bHYAL [2, 9]: no activity
IC50 mTYR [1]: no activity
